Results on four molecules are retold here after publication PMC8071193, “Dual-Target Compounds against Type 2 Diabetes Mellitus: Proof of Concept for Sodium Dependent Glucose Transporter (SGLT) and Glycogen Phosphorylase (GP) Inhibitors” (Pharmaceuticals, 2021).

Usually IC50 stands for the point on the concentration scale where inhibition reaches its midpoint. Broadly, the Ki is the dissociation constant of the complex between target and ligand, obtained from inhibition or displacement.

Assay [1] has as its target T1, SGLT1 (Homo sapiens, UniProt P13866).
T1 construct: host or cells: TSA201 (Human Embryonal Kidney) cells, lentiviral transduction, puromycin selection
T1 sequence (P13866 1-664): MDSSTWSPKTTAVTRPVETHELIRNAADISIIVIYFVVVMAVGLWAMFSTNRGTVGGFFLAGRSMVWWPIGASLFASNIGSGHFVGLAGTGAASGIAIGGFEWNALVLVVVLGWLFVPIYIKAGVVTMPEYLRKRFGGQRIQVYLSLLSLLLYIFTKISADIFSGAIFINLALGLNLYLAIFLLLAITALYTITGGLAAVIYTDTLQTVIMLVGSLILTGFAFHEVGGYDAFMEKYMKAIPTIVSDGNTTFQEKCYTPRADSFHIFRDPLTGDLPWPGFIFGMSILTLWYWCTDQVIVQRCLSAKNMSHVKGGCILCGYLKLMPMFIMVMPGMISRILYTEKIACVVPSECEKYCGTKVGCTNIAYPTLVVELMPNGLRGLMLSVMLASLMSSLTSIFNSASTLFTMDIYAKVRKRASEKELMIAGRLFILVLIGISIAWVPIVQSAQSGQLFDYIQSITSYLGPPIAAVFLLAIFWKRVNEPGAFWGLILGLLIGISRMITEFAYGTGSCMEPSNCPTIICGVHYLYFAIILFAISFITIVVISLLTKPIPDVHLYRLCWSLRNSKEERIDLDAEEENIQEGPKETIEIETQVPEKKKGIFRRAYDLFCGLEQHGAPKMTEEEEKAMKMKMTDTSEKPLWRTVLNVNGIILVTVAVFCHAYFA
Briefly: SGLT1 inhibition, 2-NBDG glucose uptake in SGLT1-overexpressing TSA201 cells. Type of assay: cell-based. The settings on record: Table 3; TSA-201 cells; NI: no inhibition at 1000 µM.
Method: (§1) These expression vectors contain a puromycin resistance gene.
(§2) Cells (100,000 cells, TSA201) were plated into each well of a 24-well plate and incubated overnight at 37 °C. […] Two wells were treated only with hexadimetrine bromide as a control. After 24 h of transfection, the medium was changed to fresh medium without antibiotics. Cells were collected and transferred into T-25 flasks after 3 days. On the fifth day, 10 µg/mL puromycin was added to select only the transfected cells. The nontransfected cells cannot survive this high concentration of antibiotic. To keep up the selection, the medium including 10 µg/mL puromycin was replaced every two days. The cells lived under puromycin pressure until the day of the experiments.
(§3) TSA201 cells (25,000) with and without overexpressed SGLT1 or 2 were put into poly-L-lysine (P5999, Sigma-Aldrich, St. Luis, MO, USA) treated wells of a 96-well plate. The next day, the cells were starved for 1 h with 90 µL glucose-free medium (D5036-10X1L Sigma-Aldrich, St. Luis, MO, USA) (with or without inhibitor). After starving, cells were treated with 100 µM 2-NBDG and incubated for 30 min (again with or without inhibitor). The incubation time of cells with possible inhibitors was 90 min altogether. After incubation, the medium was removed, the wells were washed with PBS twice, lysed with 100 µL lysis buffer (0.1 M KH2PO4 + 1% Triton-x, pH = 11), and stored at -20°C. […] Subsequently, the protein concentration was measured and NBDG uptake was normalized to protein amount.
(§4) After selecting optimal concentrations, each compound was tested at four different concentrations. […] To determine the specific effects of the compounds on SGLT1 or 2, the glucose uptake values in TSA201 cells without SGLT overexpression were subtracted from the values in TSA201 cell overexpressing SGLT. […] All calculations were prepared using the GraphPad Prism software (GraphPad Software, Inc., SanDiego, CA, USA). The data were plotted on a logarithmic scale as a function of inhibitor concentration. The IC50 values were calculated by non-linear regression analysis from sigmoidal dose-response curves. The results of kinetic experiments were calculated from at least three independent experiments. Each experiment contained four parallel samples that were averaged. The standard deviations were calculated based on the average values for the independent experiments.

Assay [2] has as its target T2, rabbit muscle glycogen phosphorylase b (rmGPb) (Oryctolagus cuniculus, UniProt P00489).
T2 construct: Glycogen phosphorylase b was isolated from rabbit skeletal muscle; from tissue; host or cells: rabbit skeletal muscle
T2 sequence (P00489 1-843): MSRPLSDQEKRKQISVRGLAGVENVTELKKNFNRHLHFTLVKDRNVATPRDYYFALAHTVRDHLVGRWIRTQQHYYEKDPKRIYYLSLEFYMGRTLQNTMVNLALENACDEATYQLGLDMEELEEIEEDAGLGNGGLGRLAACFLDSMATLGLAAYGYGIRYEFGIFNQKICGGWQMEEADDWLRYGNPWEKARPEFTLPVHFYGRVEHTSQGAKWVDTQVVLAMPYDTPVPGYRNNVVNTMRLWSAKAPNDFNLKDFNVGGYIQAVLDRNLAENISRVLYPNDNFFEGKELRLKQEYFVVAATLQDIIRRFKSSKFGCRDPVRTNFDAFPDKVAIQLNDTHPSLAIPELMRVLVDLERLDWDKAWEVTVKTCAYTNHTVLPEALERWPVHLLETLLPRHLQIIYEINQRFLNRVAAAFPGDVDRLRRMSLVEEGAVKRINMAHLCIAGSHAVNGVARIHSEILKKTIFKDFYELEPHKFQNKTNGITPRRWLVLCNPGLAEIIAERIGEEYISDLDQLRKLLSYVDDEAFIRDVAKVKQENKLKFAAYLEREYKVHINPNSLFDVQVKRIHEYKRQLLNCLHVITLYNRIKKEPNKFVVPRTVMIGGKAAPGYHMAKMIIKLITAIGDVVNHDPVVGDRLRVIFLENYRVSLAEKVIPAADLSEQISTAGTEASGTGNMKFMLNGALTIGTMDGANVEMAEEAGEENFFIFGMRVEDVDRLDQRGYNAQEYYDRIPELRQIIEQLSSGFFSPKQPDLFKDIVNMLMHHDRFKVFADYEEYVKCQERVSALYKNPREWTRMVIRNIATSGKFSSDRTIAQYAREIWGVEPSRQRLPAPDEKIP
As to conditions: Table 3; NI: no inhibition at 625 µM; cited from earlier work.

The target of assay [3] is T3, SGLT2 (Homo sapiens, UniProt P31639).
T3 construct: host or cells: TSA201 (Human Embryonal Kidney) cells, lentiviral transduction, puromycin selection
T3 sequence (P31639 1-672): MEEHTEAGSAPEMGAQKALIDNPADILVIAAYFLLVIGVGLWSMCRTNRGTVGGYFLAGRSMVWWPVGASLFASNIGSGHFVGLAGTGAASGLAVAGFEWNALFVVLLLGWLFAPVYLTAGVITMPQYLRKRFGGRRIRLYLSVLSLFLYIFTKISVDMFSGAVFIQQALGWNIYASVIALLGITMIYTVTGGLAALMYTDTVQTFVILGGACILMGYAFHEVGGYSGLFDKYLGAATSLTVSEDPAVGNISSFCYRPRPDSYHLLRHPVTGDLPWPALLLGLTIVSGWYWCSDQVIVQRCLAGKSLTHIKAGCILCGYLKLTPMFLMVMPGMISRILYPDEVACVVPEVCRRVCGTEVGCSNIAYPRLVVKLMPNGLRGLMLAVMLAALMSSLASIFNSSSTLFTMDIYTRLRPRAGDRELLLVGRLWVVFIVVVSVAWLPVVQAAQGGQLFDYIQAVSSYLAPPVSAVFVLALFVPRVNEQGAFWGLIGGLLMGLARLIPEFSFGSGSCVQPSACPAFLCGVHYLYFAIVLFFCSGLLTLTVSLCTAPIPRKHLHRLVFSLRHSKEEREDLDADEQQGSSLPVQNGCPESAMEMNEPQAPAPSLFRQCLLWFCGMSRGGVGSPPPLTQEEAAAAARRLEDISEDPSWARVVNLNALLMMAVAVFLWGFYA
Briefly: SGLT2 inhibition, 2-NBDG glucose uptake in SGLT2-overexpressing TSA201 cells. The settings on record: Table 3; TSA-201 cells; NI: no inhibition at 1000 µM. Type of assay: cell-based.
Method: as §1, §2, §3, §4

Assay [4] deals with sodium dependent glucose cotransporter (SGLT2). Also on record: method as in earlier work. As to conditions: ref 19 (1), 35 (2), 36 (3), 37 (4), 38 (5), 34 (6), cited from earlier work; for selectivity SGLT2/SGLT1: Table 1, value in brackets; for IC50: Table 1, read-out: IC50 against SGLT2.

Take `OC[C@H]1O[C@@H](c2cn(-c3ccc4ccccc4c3)nn2)[C@H](O)[C@@H](O)[C@@H]1O` [22b]: the IC50 in assay [1] came to 23.8 ± 5.72 µM; in assay [3] it was 111 ± 27.6 µM. In addition, the Ki in assay [2] is > 625 µM.
Take `OC[C@H]1O[C@@H](c2cn(-c3ccccc3)nn2)[C@H](O)[C@@H](O)[C@@H]1O` [22a]: the IC50 in assay [1] worked out at 242 ± 37.9 µM; in assay [3], 9.1 ± 2.94 µM. The Ki in assay [2] is > 625 µM.
As to `OC[C@H]1O[C@@H](c2ccc(F)c(Cc3cc4ccccc4s3)c2)[C@H](O)[C@@H](O)[C@@H]1O` [compound 5, ipragliflozin], in assay [4], the “selectivity SGLT2/SGLT1” value is 254 and the IC50 is 0.0074 µM.
As to `Cc1ccc([C@@H]2O[C@H](CO)[C@@H](O)[C@H](O)[C@H]2O)cc1Cc1ccc(-c2ccc(F)cc2)s1` [compound 4, canagliflozin], in assay [4], the “selectivity SGLT2/SGLT1” value is 414 and the concentration for half-maximal inhibition (IC50) is 0.0022 µM.
